Results from ChEMBL document CHEMBL5634137, “2,4-Diacetylphloroglucinol (DAPG) derivatives rapidly eradicate methicillin-resistant staphylococcus aureus without resistance development by disrupting membrane” (Eur J Med Chem, 2023).
In brackets after ≈: the same amount, converted by molar mass.

Experiments:
Staphylococcus aureus [1] = assay: Antibacterial activity against Methicillin-resistant Staphylococcus aureus USA300 assessed as inhibition of bacterial growth incubated for 24 hrs by broth dilution method; format: functional
Escherichia coli = assay: Antibacterial activity against Escherichia coli ATCC 11775 assessed as inhibition of bacterial growth incubated for 24 hrs by broth dilution method; format: functional
Klebsiella pneumoniae = assay: Antibacterial activity against Klebsiella pneumoniae […] assessed as inhibition of bacterial growth incubated for 24 hrs by broth dilution method; format: functional
Pseudomonas aeruginosa = assay: Antibacterial activity against Pseudomonas aeruginosa […] assessed as inhibition of bacterial growth incubated for 24 hrs by broth dilution method; format: functional
Staphylococcus aureus [2] = assay: Bactericidal against methicillin-resistant Staphylococcus aureus ATCC 4330 assessed as inhibition of bacterial growth incubated for 24 hrs by broth dilution method; format: functional
Staphylococcus aureus [3] = assay: Bactericidal activity against methicillin-resistant Staphylococcus aureus ATCC 3392 assessed as inhibition of bacterial growth incubated for 24 hrs by broth dilution method; format: functional
Staphylococcus aureus [4] = assay: Antibacterial activity against methicillin-resistant Staphylococcus aureus ATCC 4330 assessed as inhibition of bacterial growth incubated for 24 hrs by broth dilution method; format: functional
Staphylococcus aureus [5] = assay: Antibacterial activity against methicillin-resistant Staphylococcus aureus ATCC 3392 assessed as inhibition of bacterial growth incubated for 24 hrs by broth dilution method; format: functional
Staphylococcus aureus [6] = assay: Selectivity index, ratio of MBC for bactericidal against methicillin-resistant Staphylococcus aureus ATCC 4330 to MIC for antibacterial activity against methicillin-resistant Staphylococcus aureus ATCC 4330; format: functional
Staphylococcus aureus [7] = assay: Selectivity index, ratio of MBC for bactericidal against methicillin-resistant Staphylococcus aureus ATCC 3392 to MIC for antibacterial activity against methicillin-resistant Staphylococcus aureus ATCC 3392; format: functional
[8] = Cytotoxicity against mouse RAW264.7 cells assessed as survival rate incubated for 24 hrs by MTT assay; format: toxicity, cell-based; set-up: concentration or dose not given beside the values; conditions: read-out: Survival
[9] = Cytotoxicity against human L02 cells assessed as survival rate incubated for 24 hrs by MTT assay; format: toxicity, cell-based; set-up: concentration or dose not given beside the values; conditions: read-out: Survival

SMILES | MIC (Staphylococcus aureus [4]) [µg/mL] | MIC (Staphylococcus aureus [5]) [µg/mL] | also measured
CC(=O)c1c(O)cc(O)c(C(C)=O)c1O | 8 (≈ 38.1 µM) | 4 (≈ 19 µM) | MIC (Staphylococcus aureus [1]): 8 µg/mL (≈ 38.1 µM); MIC (Escherichia coli): > 64 µg/mL; MIC (Klebsiella pneumoniae): > 64 µg/mL; MIC (Pseudomonas aeruginosa): > 64 µg/mL; MBC (Staphylococcus aureus [2]): 32 µg/mL (≈ 152 µM); MBC (Staphylococcus aureus [3]): 64 µg/mL (≈ 304 µM); Selectivity Index (Staphylococcus aureus [6]): 4; Selectivity Index (Staphylococcus aureus [7]): 16
CC(C)CCC(=O)c1c(O)cc(O)c(C(=O)CCC(C)C)c1O | 0.5 (≈ 1.55 µM) | 0.5 (≈ 1.55 µM) | MIC (Staphylococcus aureus [1]): 0.5 µg/mL (≈ 1.55 µM); MIC (Escherichia coli): > 64 µg/mL; MIC (Klebsiella pneumoniae): > 64 µg/mL; MIC (Pseudomonas aeruginosa): > 64 µg/mL; MBC (Staphylococcus aureus [2]): 2 µg/mL (≈ 6.2 µM); MBC (Staphylococcus aureus [3]): 2 µg/mL (≈ 6.2 µM); Selectivity Index (Staphylococcus aureus [6]): 4; Selectivity Index (Staphylococcus aureus [7]): 4
CCCCCCCCCCCCCCCC(=O)c1c(O)cc(O)cc1O | > 64 | > 64 | –
CCC(C)C(=O)c1c(O)cc(O)cc1O (stereo unspecified) | 32 (≈ 152 µM) | > 64 | –
O=C(c1c(O)cc(O)c(C(=O)C2CC2)c1O)C1CC1 | 8 (≈ 30.5 µM) | 8 (≈ 30.5 µM) | –
O=C(c1c(O)cc(O)cc1O)C1CCCC1 | 64 (≈ 288 µM) | 64 (≈ 288 µM) | –
CCCCCCC(=O)c1c(O)cc(O)cc1O | 16 (≈ 67.1 µM) | 16 (≈ 67.1 µM) | –
CC(C)C(=O)c1c(O)cc(O)c(C(=O)C(C)C)c1O | 4 (≈ 15 µM) | 4 (≈ 15 µM) | –
CCCCCCCCC(=O)c1c(O)cc(O)cc1O | 8 (≈ 30 µM) | 8 (≈ 30 µM) | –
CCCCCCCC(=O)c1c(O)cc(O)cc1O | 8 (≈ 31.7 µM) | 8 (≈ 31.7 µM) | –
CC(=O)c1c(O)cc(O)cc1O [2,4,6-TRIHYDROXYACETOPHENONE] | > 64 | > 64 | –
CCCCCCCCCC(=O)c1c(O)cc(O)cc1O | 32 (≈ 114 µM) | 32 (≈ 114 µM) | –
CCCCC(=O)c1c(O)cc(O)c(C(=O)CCCC)c1O | 2 (≈ 6.79 µM) | 2 (≈ 6.79 µM) | MIC (Staphylococcus aureus [1]): 0.5 µg/mL (≈ 1.7 µM); MIC (Escherichia coli): 64 µg/mL (≈ 217 µM); MIC (Klebsiella pneumoniae): > 64 µg/mL; MIC (Pseudomonas aeruginosa): > 64 µg/mL; MBC (Staphylococcus aureus [2]): 2 µg/mL (≈ 6.79 µM); MBC (Staphylococcus aureus [3]): 4 µg/mL (≈ 13.6 µM)
CC1(C)S[C@@H]2[C@H](NC(=O)[C@H](N)c3ccc(O)cc3)C(=O)N2[C@H]1C(=O)O [AMOXICILLIN] | – | – | MIC (Staphylococcus aureus [1]): 128 µg/mL (≈ 350 µM)
CCCC(=O)c1c(O)cc(O)cc1O | > 64 | > 64 | –
CCC(=O)c1c(O)cc(O)cc1O [FLOPROPIONE] | > 64 | > 64 | –
O=C(c1c(O)cc(O)c(C(=O)C2CCC2)c1O)C1CCC1 | 2 (≈ 6.89 µM) | 2 (≈ 6.89 µM) | MIC (Staphylococcus aureus [1]): 1 µg/mL (≈ 3.44 µM); MIC (Escherichia coli): 64 µg/mL (≈ 220 µM); MIC (Klebsiella pneumoniae): > 64 µg/mL; MIC (Pseudomonas aeruginosa): > 64 µg/mL; MBC (Staphylococcus aureus [2]): 4 µg/mL (≈ 13.8 µM); MBC (Staphylococcus aureus [3]): 8 µg/mL (≈ 27.6 µM); Selectivity Index (Staphylococcus aureus [6]): 2; Selectivity Index (Staphylococcus aureus [7]): 4
CCCCC(=O)c1c(O)cc(O)cc1O | > 64 | > 64 | –
CCCCCCCCCC(=O)c1c(O)cc(O)c(C(=O)CCCCCCCCC)c1O | 8 (≈ 18.4 µM) | 8 (≈ 18.4 µM) | –
O=C(c1c(O)cc(O)cc1O)C1CCCCC1 | 64 (≈ 271 µM) | > 64 | –
CCCCC(=O)c1c(O)cc(O)c(C(=O)CC(C)(C)C)c1O | 0.5 (≈ 1.62 µM) | 0.5 (≈ 1.62 µM) | MIC (Staphylococcus aureus [1]): 0.5 µg/mL (≈ 1.62 µM); MIC (Escherichia coli): > 64 µg/mL; MIC (Klebsiella pneumoniae): > 64 µg/mL; MIC (Pseudomonas aeruginosa): > 64 µg/mL; MBC (Staphylococcus aureus [2]): 4 µg/mL (≈ 13 µM); MBC (Staphylococcus aureus [3]): 4 µg/mL (≈ 13 µM); Selectivity Index (Staphylococcus aureus [6]): 8; viability at 24 h [8]: 76%; viability at 24 h [9]: 75%
CCC(=O)c1c(O)cc(O)c(C(=O)CC)c1O | 4 (≈ 16.8 µM) | 8 (≈ 33.6 µM) | –
CC(C)C(=O)c1c(O)cc(O)cc1O [PHLOROISOBUTYROPHENONE] | 32 (≈ 163 µM) | 64 (≈ 326 µM) | –
O=C(O)c1cn(C2CC2)c2cc(N3CCNCC3)c(F)cc2c1=O [CIPROFLOXACIN] | 0.25 (≈ 0.754 µM) | 0.25 (≈ 0.754 µM) | MIC (Staphylococcus aureus [1]): 0.25 µg/mL (≈ 0.754 µM)
COc1cc(OC)c(C(C)=O)c(OC)c1C(C)=O | > 64 | > 64 | –
O=C(c1c(O)cc(O)cc1O)C1CC1 | 16 (≈ 82.4 µM) | 32 (≈ 165 µM) | –
CCCCCCCC(=O)c1c(O)cc(O)c(C(=O)CCCCCCC)c1O | 1 (≈ 2.64 µM) | 2 (≈ 5.28 µM) | MIC (Staphylococcus aureus [1]): 2 µg/mL (≈ 5.28 µM); MIC (Escherichia coli): > 64 µg/mL; MIC (Klebsiella pneumoniae): > 64 µg/mL; MIC (Pseudomonas aeruginosa): > 64 µg/mL; MBC (Staphylococcus aureus [2]): 1 µg/mL (≈ 2.64 µM); MBC (Staphylococcus aureus [3]): 2 µg/mL (≈ 5.28 µM); Selectivity Index (Staphylococcus aureus [6]): 1; Selectivity Index (Staphylococcus aureus [7]): 1
